Patent US20140107051A1, “ISOFLAVONES FOR TREATING MUCOPOLYSACCHARIDOSES” (INSTYTUT FARMACEUTYCZNY, priority 2005, published 2014)

Assays:
[1] = system: cultured human skin fibroblasts derived from normal individuals; assay: 35S-sulphate incorporation test of glycosaminoglycans synthesis, normal cells; format: cell-based; settings: 30 μM; for activity at 30 µM: Homo sapiens, Skin fibroblast, DMSO control = 1, read-out: Relative GAG synthesis (converted to 1 cell), Normal cells
Experimental: (§1) The activity of isoflavones was evaluated by the measure of glycosaminoglycans synthesis in 35S-sulphate incorporation test comprising incubation of the radiolabelled 35S-sulfate into GAGs in cultured human skin fibroblasts derived from normal individuals (control) and patients affected with mucopolysaccharidose (Murata et al., Arch Biochem Biophys 2003; 413: 229-235).
(§2) The negative control was DMSO (diluent for genistein and all derivatives), the positive control—genistein. […] Experiment with each cell line has been repeated twice, and every measurement has been done twice.

[2] = system: fibroblasts of patients affected with MPS I; assay: 35S-sulphate incorporation test of glycosaminoglycans synthesis, MPS I cells; format: cell-based, human; settings: Homo sapiens, Fibroblast, 30 μM; DMSO control = 1; read-out: Relative GAG synthesis (converted to 1 cell), MPS I
Experimental: as §1, §2

[3] = system: cultured human skin fibroblasts derived from patients affected with mucopolysaccharidose; assay: 35S-sulphate incorporation test of glycosaminoglycans synthesis, different human cell lines / MPS types; format: cell-based; settings: 30 μM; both cell lines of Table 2
Experimental: as §1, §2

[4] = Proliferation 144 h (Table 4); format: cell-based; settings: read-out: Proliferation 144 h IC50
MPS IIIA fibroblasts = assay: Number of lysosomal structures by electron microscopy, MPS IIIA; format: cell-based, human; settings: 30 μM
MPS IIIB fibroblasts = assay: Number of lysosomal structures by electron microscopy, MPS IIIB; format: cell-based, human; settings: 30 μM

Nc1ccccc1C(=O)Oc1ccc(-c2coc3cc(O)cc(O)c3c2=O)cc1 [IFG-001]
activity at 30 µM [1]: 84% | activity at 30 µM [2]: 170% | CC50 at 24 h (in vitro): 13.9 µM

CC(=O)OCC1OC(Oc2cc(O)c3c(=O)c(-c4ccc(O)cc4)coc3c2)C=CC1OC1OC(COC(C)=O)C(OC(C)=O)C(OC(C)=O)C1OC(C)=O (centres unmarked) [IFG-021]
activity at 30 µM [1]: 57% | activity at 30 µM [2]: 92% | CC50 at 24 h (in vitro): 11 µM

C=CCOc1cc(O)c2c(=O)c(-c3ccc(O)cc3)coc2c1 [IFG-027]
Inhibition in relation to genistein, first symbol (normal cells) [1]: 0/0 | activity at 30 µM [1]: 22% | activity at 30 µM [2]: 57% | influence on GAG synthesis compared with genistein (in words) [3]: an activity comparable with genistein | CC50 at 24 h (in vitro): 13.1 µM

O=C(Oc1cc(O)c2c(=O)c(-c3ccc(O)cc3)coc2c1)c1ccccc1O [IFG-034]
activity at 30 µM [1]: 40% | activity at 30 µM [2]: 93% | IC50 [4]: 22.9 µM | Number of structures per 100 μm^2 of cellular cross section ± SD, amorphous (MPS IIIA fibroblasts): 0.17 ± 0.09 per 100 μm^2 | Number of structures per 100 μm^2 of cellular cross section ± SD, complexed (MPS IIIA fibroblasts): 0.27 ± 0.14 per 100 μm^2 | Number of structures per 100 μm^2 of cellular cross section ± SD, lamellar (MPS IIIA fibroblasts): 0.17 ± 0.09 per 100 μm^2 | Number of structures per 100 μm^2 of cellular cross section ± SD, total number (MPS IIIA fibroblasts): 0.61 ± 0.20 per 100 μm^2 | Number of structures per 100 μm^2 of cellular cross section ± SD, amorphous (MPS IIIB fibroblasts): 0.15 ± 0.08 per 100 μm^2 | Number of structures per 100 μm^2 of cellular cross section ± SD, complexed (MPS IIIB fibroblasts): 0.06 ± 0.05 per 100 μm^2 | Number of structures per 100 μm^2 of cellular cross section ± SD, lamellar (MPS IIIB fibroblasts): 0.20 ± 0.16 per 100 μm^2 | Number of structures per 100 μm^2 of cellular cross section ± SD, total number (MPS IIIB fibroblasts): 0.41 ± 0.16 per 100 μm^2 | CC50 at 24 h (in vitro): > 30 µM | CC50 at 48 h (in vitro): > 30 µM

C=CCOc1ccc(-c2coc3cc(OCC=C)cc(O)c3c2=O)cc1 [IFG-035]
Inhibition in relation to genistein, first symbol (normal cells) [1]: 0 | activity at 30 µM [1]: 26% | activity at 30 µM [2]: 117% | influence on GAG synthesis compared with genistein (in words) [3]: an activity comparable with genistein, but only for one cell line | CC50 at 24 h (in vitro): 22.6 µM

CC(C)(C)OC(=O)COc1ccc(-c2coc3cc(OCC(=O)OC(C)(C)C)cc(O)c3c2=O)cc1 [IFG-042]
Inhibition in relation to genistein, first symbol (normal cells) [1]: + | activity at 30 µM [1]: 14% | activity at 30 µM [2]: 49% | influence on GAG synthesis compared with genistein (in words) [3]: stronger influence on GAG synthesis than genistein | CC50 at 24 h (in vitro): 22 µM

O=c1c(-c2ccc(O)cc2)coc2cc(OCc3ccccc3)cc(O)c12 [IFG-043]
Inhibition in relation to genistein, first symbol (normal cells) [1]: + | activity at 30 µM [1]: 17% | activity at 30 µM [2]: 44% | influence on GAG synthesis compared with genistein (in words) [3]: an activity comparable with genistein | CC50 at 24 h (in vitro): 14.5 µM

CC(C)(C)OC(=O)COc1ccc(-c2coc3cc(O)cc(O)c3c2=O)cc1 [IFG-048]
activity at 30 µM [1]: 70% | activity at 30 µM [2]: 92% | influence on GAG synthesis compared with genistein (in words) [3]: an activity comparable with genistein, but only for one cell line | CC50 at 24 h (in vitro): 20.3 µM

O=c1c(-c2ccc(O)cc2)coc2cc(OCC3CO3)cc(O)c12 (centres unmarked) [IFG-050]
Inhibition in relation to genistein, first symbol (normal cells) [1]: + | activity at 30 µM [1]: 10% | activity at 30 µM [2]: 73% | influence on GAG synthesis compared with genistein (in words) [3]: stronger influence on GAG synthesis than genistein | CC50 at 24 h (in vitro): 11.6 µM

C=CCOc1ccc(-c2coc3cc(OCc4ccccc4)cc(O)c3c2=O)cc1 [IFG-051]
Inhibition in relation to genistein, first symbol (normal cells) [1]: 0 | activity at 30 µM [1]: 32% | activity at 30 µM [2]: 96% | influence on GAG synthesis compared with genistein (in words) [3]: an activity comparable with genistein, but only for one cell line | CC50 at 24 h (in vitro): 14.6 µM

O=C(O)COc1cc(O)c2c(=O)c(-c3ccc(O)cc3)coc2c1 [IFG-054]
Inhibition in relation to genistein, first symbol (normal cells) [1]: 0/0 | activity at 30 µM [1]: 30% | activity at 30 µM [2]: 53% | IC50 [4]: > 30 µM | CC50 at 24 h (in vitro): > 30 µM | CC50 at 48 h (in vitro): > 30 µM

O=C(O)CCCC(=O)Oc1ccc(-c2coc3cc(OCc4ccccc4)cc(O)c3c2=O)cc1 [IFG-060]
Inhibition in relation to genistein, first symbol (normal cells) [1]: − | activity at 30 µM [1]: 43% | activity at 30 µM [2]: 31% | CC50 at 24 h (in vitro): 14.9 µM

COc1ccc(COc2cc(O)c3c(=O)c(-c4ccc(O)cc4)coc3c2)cc1 [IFG-062]
activity at 30 µM [1]: 316% | activity at 30 µM [2]: 561% | CC50 at 24 h (in vitro): 12.1 µM

C=CCOC(=O)Oc1cc(O)c2c(=O)c(-c3ccc(O)cc3)coc2c1 [IFG-063]
activity at 30 µM [1]: 75% | activity at 30 µM [2]: 187% | CC50 at 24 h (in vitro): 51.5 µM

CC(C)Oc1ccc(-c2coc3cc(OCc4ccccc4)cc(O)c3c2=O)cc1 [IFG-064]
activity at 30 µM [1]: 68% | activity at 30 µM [2]: 60% | influence on GAG synthesis compared with genistein (in words) [3]: an activity comparable with genistein, but only for one cell line | CC50 at 24 h (in vitro): 6.6 µM

CC(C)Oc1ccc(-c2coc3cc(OCc4ccccc4)cc(OC(C)C)c3c2=O)cc1 [IFG-065]
activity at 30 µM [1]: 152% | activity at 30 µM [2]: 97% | CC50 at 24 h (in vitro): 22.7 µM

CC(=O)Oc1ccc(-c2coc3cc(OCc4ccccc4)cc(O)c3c2=O)cc1 [IFG-067]
activity at 30 µM [1]: 67% | activity at 30 µM [2]: 61% | CC50 at 24 h (in vitro): 15.1 µM

COC(=O)COc1cc(O)c2c(=O)c(-c3ccc(O)cc3)coc2c1 [IFG-070, [5-hydroxy-3-(4-hydroxyphenyl)-4-oxo-4H-chromen-7-yloxy]-acetic acid methyl ester]
IC50 [4]: 48.1 µM | CC50 at 24 h (in vitro): > 30 µM | CC50 at 48 h (in vitro): > 30 µM

CC(=O)OCCCCCOc1cc(O)c2c(=O)c(-c3ccc(O)cc3)coc2c1 [IFG-071, acetic acid 5-[5-hydroxy-3-(4-hydroxyphenyl)-4-oxo-4H-chromen-7-yloxy]-pentyl ester]
IC50 [4]: 17.9 µM | Number of structures per 100 μm^2 of cellular cross section ± SD, amorphous (MPS IIIA fibroblasts): 0.25 ± 0.11 per 100 μm^2 | Number of structures per 100 μm^2 of cellular cross section ± SD, complexed (MPS IIIA fibroblasts): 0.26 ± 0.09 per 100 μm^2 | Number of structures per 100 μm^2 of cellular cross section ± SD, lamellar (MPS IIIA fibroblasts): 0.28 ± 0.13 per 100 μm^2 | Number of structures per 100 μm^2 of cellular cross section ± SD, total number (MPS IIIA fibroblasts): 0.79 ± 0.22 per 100 μm^2 | Number of structures per 100 μm^2 of cellular cross section ± SD, amorphous (MPS IIIB fibroblasts): 0.13 ± 0.09 per 100 μm^2 | Number of structures per 100 μm^2 of cellular cross section ± SD, complexed (MPS IIIB fibroblasts): 0.07 ± 0.06 per 100 μm^2 | Number of structures per 100 μm^2 of cellular cross section ± SD, lamellar (MPS IIIB fibroblasts): 0.07 ± 0.07 per 100 μm^2 | Number of structures per 100 μm^2 of cellular cross section ± SD, total number (MPS IIIB fibroblasts): 0.26 ± 0.13 per 100 μm^2 | CC50 at 24 h (in vitro): > 30 µM | CC50 at 48 h (in vitro): 57.6 µM

O=c1c(-c2ccc(O)cc2)coc2cc(OCCCO)cc(O)c12 [IFG-072, 5-hydroxy-3-(4-hydroxyphenyl)-7-(3-hydroxypropoxy)-chromen-4-one]
IC50 [4]: 14.1 µM | Number of structures per 100 μm^2 of cellular cross section ± SD, amorphous (MPS IIIA fibroblasts): 0.34 ± 0.17 per 100 μm^2 | Number of structures per 100 μm^2 of cellular cross section ± SD, complexed (MPS IIIA fibroblasts): 0.28 ± 0.10 per 100 μm^2 | Number of structures per 100 μm^2 of cellular cross section ± SD, lamellar (MPS IIIA fibroblasts): 0.20 ± 0.10 per 100 μm^2 | Number of structures per 100 μm^2 of cellular cross section ± SD, total number (MPS IIIA fibroblasts): 0.82 ± 0.23 per 100 μm^2 | Number of structures per 100 μm^2 of cellular cross section ± SD, amorphous (MPS IIIB fibroblasts): 0.14 ± 0.10 per 100 μm^2 | Number of structures per 100 μm^2 of cellular cross section ± SD, complexed (MPS IIIB fibroblasts): 0.16 ± 0.08 per 100 μm^2 | Number of structures per 100 μm^2 of cellular cross section ± SD, lamellar (MPS IIIB fibroblasts): 0.11 ± 0.12 per 100 μm^2 | Number of structures per 100 μm^2 of cellular cross section ± SD, total number (MPS IIIB fibroblasts): 0.41 ± 0.20 per 100 μm^2 | CC50 at 24 h (in vitro): > 30 µM | CC50 at 48 h (in vitro): 32.5 µM

O=c1c(-c2ccc(O)cc2)coc2cc(OCCO)cc(O)c12 [IFG-073, 5-hydroxy-7-(2-hydroxyethoxy)-3-(4-hydroxyphenyl)-chromen-4-one]
IC50 [4]: 16.1 µM | CC50 at 24 h (in vitro): 27.5 µM | CC50 at 48 h (in vitro): 21.7 µM
